Earlier results in patent publication US20090142391A1, “Conjugated RNAi Therapeutics” (priority 2007, published 2009).

Settings: in the blood

C=CC[C@@H]1/C=C(\C)C[C@H](C)C[C@H](OC)[C@H]2O[C@@](O)(C(=O)C(=O)N3CCCC[C@H]3C(=O)O[C@H](/C(C)=C/[C@@H]3CC[C@@H](O)[C@H](OC)C3)[C@H](C)[C@@H](O)CC1=O)[C@H](C)C[C@@H]2OC [FK506]
distribution into protected cellular compartments: 72-98%
